Laboratory results from patent US20240261274A1, “TREATMENT OF MYC-DRIVEN CANCERS WITH GSPT1 DEGRADERS” (MONTE ROSA THERAPEUTICS, INC., priority 2021, published 2024).
Where two headings read alike, the source gives them in different places.

Experiments:
GSPT1 [1] = biological target: T1, GSPT1 (Homo sapiens, UniProt P15170+Q96SW2); assay: GSPT1 levels in tumors, PD analysis by western blotting (compound 8); assay type: in vivo, mice; design: from tissue; host or cells: NCI-H1155 subcutaneous xenograft tumours from BALB/c nude mice; details: 75 mg/kg and 37 mg/kg, respectively; 24 hr post third dose
T1 sequence (P15170 whole entry): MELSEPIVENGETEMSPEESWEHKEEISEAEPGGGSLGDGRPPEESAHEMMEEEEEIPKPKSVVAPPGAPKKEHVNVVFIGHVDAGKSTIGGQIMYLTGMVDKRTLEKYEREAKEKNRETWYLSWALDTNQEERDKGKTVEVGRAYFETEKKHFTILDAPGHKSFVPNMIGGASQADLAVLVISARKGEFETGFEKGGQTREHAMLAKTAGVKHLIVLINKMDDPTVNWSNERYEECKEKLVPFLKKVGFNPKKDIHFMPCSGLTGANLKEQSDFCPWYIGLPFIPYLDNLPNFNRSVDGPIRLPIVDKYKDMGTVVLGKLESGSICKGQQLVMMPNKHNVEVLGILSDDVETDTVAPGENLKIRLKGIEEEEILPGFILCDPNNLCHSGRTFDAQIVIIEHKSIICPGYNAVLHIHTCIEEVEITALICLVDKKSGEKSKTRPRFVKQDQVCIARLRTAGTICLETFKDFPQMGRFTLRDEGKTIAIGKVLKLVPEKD
T1 sequence (Q96SW2 whole entry): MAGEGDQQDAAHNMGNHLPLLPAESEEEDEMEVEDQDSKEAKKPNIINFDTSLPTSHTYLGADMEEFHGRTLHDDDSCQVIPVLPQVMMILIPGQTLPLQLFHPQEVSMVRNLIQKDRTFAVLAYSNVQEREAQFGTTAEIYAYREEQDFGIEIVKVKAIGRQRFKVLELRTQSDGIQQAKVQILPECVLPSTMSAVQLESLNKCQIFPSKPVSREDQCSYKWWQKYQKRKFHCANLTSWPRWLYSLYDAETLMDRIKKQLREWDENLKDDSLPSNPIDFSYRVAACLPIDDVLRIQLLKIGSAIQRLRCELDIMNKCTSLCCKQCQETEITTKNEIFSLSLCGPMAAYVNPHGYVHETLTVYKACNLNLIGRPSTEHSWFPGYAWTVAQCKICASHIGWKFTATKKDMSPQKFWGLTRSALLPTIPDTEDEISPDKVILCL
T1 sequence (Q16531 whole entry partner): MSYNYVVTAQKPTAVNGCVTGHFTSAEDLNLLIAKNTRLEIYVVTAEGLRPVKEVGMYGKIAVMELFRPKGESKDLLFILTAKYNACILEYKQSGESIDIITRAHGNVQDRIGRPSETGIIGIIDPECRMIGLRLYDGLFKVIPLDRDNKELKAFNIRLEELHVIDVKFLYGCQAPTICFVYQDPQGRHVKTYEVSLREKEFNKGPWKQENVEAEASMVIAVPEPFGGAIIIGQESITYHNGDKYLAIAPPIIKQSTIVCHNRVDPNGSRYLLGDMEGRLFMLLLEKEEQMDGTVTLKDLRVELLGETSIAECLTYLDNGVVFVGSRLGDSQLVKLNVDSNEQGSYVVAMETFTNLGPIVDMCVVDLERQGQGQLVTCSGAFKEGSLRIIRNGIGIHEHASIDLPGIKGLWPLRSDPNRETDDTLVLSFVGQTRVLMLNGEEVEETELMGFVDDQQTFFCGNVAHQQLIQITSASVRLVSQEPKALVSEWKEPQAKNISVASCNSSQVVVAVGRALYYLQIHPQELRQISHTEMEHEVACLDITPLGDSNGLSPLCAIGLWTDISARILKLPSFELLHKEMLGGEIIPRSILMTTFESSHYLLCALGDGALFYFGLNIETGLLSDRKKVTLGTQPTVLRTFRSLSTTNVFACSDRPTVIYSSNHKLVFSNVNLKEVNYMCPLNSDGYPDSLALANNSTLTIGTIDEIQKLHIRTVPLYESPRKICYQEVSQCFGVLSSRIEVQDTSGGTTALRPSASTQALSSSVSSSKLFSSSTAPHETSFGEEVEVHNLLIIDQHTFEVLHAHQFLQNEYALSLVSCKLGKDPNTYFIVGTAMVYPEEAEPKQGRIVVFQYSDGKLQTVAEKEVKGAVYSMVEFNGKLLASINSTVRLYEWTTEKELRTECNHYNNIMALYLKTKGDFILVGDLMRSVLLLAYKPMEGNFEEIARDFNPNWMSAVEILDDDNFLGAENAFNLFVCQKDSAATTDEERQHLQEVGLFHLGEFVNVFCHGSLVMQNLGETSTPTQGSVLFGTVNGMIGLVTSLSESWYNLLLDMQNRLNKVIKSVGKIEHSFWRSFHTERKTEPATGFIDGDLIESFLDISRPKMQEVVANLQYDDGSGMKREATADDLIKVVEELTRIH
Protocol: For the PD analysis, tumors were harvested 24 hr post third dose and GSPT1 total levels in tumors were determined by western blotting analysis. GADPH levels were measured as control Briefly, 30-50 mg of tumor was placed in 350 μL of RIPA buffer containing 1% Protease Inhibitor Cocktail and 1% Phosphatase Inhibitor Cocktail 2. Tumors were grinded using the Tissuelyser LT at 50 Hz for 5 min. the tissue lysates were kept on ice for 30 min, centrifuged at 12,000 rpm at 4° C. for 10 min and protein concentration measured using the Pierce™ BCA Protein Assay Kit as recommended by the manufacturer. Samples were diluted to the same final concentration (at 4 μg/μL) using RIPA buffer plus 4×LDS Sample Buffer and 10× Sample Reducing Agent and subsequently heat denatured at 100° C. for 10 min. Western blot analysis was performed using 5 μL per slot for each sample, loaded on a NuPAGE® 4-12% Bis-Tris gel, probing for GSPT1 (Sigma-HPA052488; 1/250 dilution) and GAPDH as loading control (CST-5174; 1/2000 dilution).

MM1S cell line = assay: Caspase 3/7 apoptosis Glo assay in MM1S; assay type: cell-based; details: 48 hr treatment
GSPT1 [2] = biological target: T1, GSPT1; assay: GSPT1 degradation by immunoblotting in cancer cell lines (Compound 345); assay type: cell-based; design: endogenous in cells; host or cells: MM1 S (ATCC CRL-2974); details: for GSPT1 degradation (immunoblots): 0.03, 0.3, 3 μM; for DC50: read-out: GSPT1 DC50
Protocol: Two high N-Myc expressing NSCLC cell lines (NCI-H155 and ABC-1) and two low N-Myc expressing NSCLC cell lines (NCI-H2023 and NCI-H441) were treated with Compound 345 in culture. Cells were treated with increasing concentrations of the compound (0.0; 0.00064; 0.0032; 0.016; 0.08; 0.4; 2.0; 10; and 30 nM), lysates were prepared, SDS-PAGE and immunoblotting was performed, and transfer membranes were probed for GSPT1 and GAPDH as a loading control. Expression levels of GSPT1 detected in the immunoblots of this experiment are plotted against concentration of Compound 345 in FIG. 10B. DC50 values (the concentration of the compound at which the target protein is degraded by 50%) were estimated for each cell line. NCI-H155, DC50=14 nM; ABC-1, DC50=76 nM; NCI-H2023, DC50=18 nM; NCI-H441, DC50=8.7 nM. Estimated Dmax for all cell lines was 95%-99%.
GSPT1 and N-Myc western blotting analyses from cell line lysates: NCI-H1155, NCI-H2023, NCI-H441, ABC-1, NCI-H1836, NCI-H1876, MM.1S, DOHH2 and WSU-DLCLC2 cells were typically seeded in a 6 or 12 well plate (0.3 to 1.0×10^6 cells/mL) and incubated overnight. Compound 345 was dissolved in DMSO to obtain a 10 mM stock solution, and aliquots were stored at −20° C. The next day, cells were treated with various concentrations of Compound 345 or DMSO (Sigma, D2650) using a HP D300 dispenser (Tecan). Controls were pretreated for 30 minutes with Bortezomib (0.2 μM). Cells were washed with ice cold PBS at the indicated timepoints post addition of Compound 345 and lysed with 50 to 100 μL lysis buffer containing RIPA buffer (Invitrogen, R0278) and a mix of protease inhibitor cocktail (Sigma, P8340, 5726 and 0044). Protein concentration was assessed using the BCA assay (Pierce™ Rapid Gold BCA Protein Assay Kit, A53227) and 10 μg of protein was typically loaded onto a TGX Stain free 4-20% Criterion gel (Biorad, 5678095) for separation. Gel was transferred onto a 0.2 μm nitrocellulose membrane using the TransBlot transfer system (Biorad). Membranes were blocked in Every Blot Blocking Buffer (Biorad, 12010020) and incubated overnight at 4° C. with either of the following primary antibody: anti-GSPT1 diluted 1/5000th (Sigma, HPA052488), anti-N-Myc clone D1V2A diluted 1/1000th (Cell Signaling Technology, 84406), anti-α-Tubulin clone DM1A Alexa Fluor® 488 Conjugated (Cell Signaling Technology, Cat. No. CST8058) or anti-GAPDH Alexa647-coupled diluted 1/2500th (Invitrogen, MA5-15738-A647). The next day, a secondary HRP-conjugated goat anti-rabbit secondary antibody (Invitrogen, A16110) was used to allow detection of unlabelled primary antibodies. Membranes were imaged on a ChemiDoc imager (Biorad) using either fluorescence or chemiluminescence detection. Images were quantified using the Image Lab Software Version 6.1 (Biorad). Images were adjusted for alignment and contrast. Columns were manually defined to enable the band detection by the software. Band intensities, or densitometries, were exported to Excel (Microsoft® Excel® for Microsoft 365 MSO Version 2110) for further analysis. Briefly, band intensity for the protein of interest was normalized to the DMSO control, before being normalized to the GAPDH band intensity for the same column. Normalised data was transferred to GraphPad Prism 8.1.2 (GraphPad) and fitted using a four parameters models ([Inhibitor] vs. response—Variable slope) defined by the following equation: Y=Dmax+(Top−Dmax)/(1+(DC50/X)^HillSlope). Key degradation parameters reported included DC50 (concentration at which the GSPT1 total protein levels are reduced by 50%) and Dmax (maximum fractional amount of protein degraded).

[3] = MM1 S multiple myeloma cells, 24 hours

SMILES | GSPT1 levels in tumors (GSPT1 [1]) | apoptosis (Caspase 3/7) (MM1S cell line) | Dmax (GSPT1 [2]; [3]) [%] | GSPT1 degradation (immunoblots) (GSPT1 [2]; NCI-H155 and NCI-H2023, 0, 2, 6 hours) | GSPT1 degradation (immunoblots) (GSPT1 [2]; SCLC cell lines NCI-H1836 and NCI-H1876, up to 24 hours) | Dmax (GSPT1 [2]; WSUDLCL2, WSU-DLCL2 triple hit lymphoma cells, 24 hours) [%] | Dmax (GSPT1 [2]; all cell lines (NCI-H155, ABC-1, NCI-H2023, NCI-H441)) [%] | DC50 (GSPT1 [2]; ABC-1 (high N-Myc NSCLC)) [nM] | DC50 (GSPT1 [2]; [3]) [nM] | DC50 (GSPT1 [2]; NCI-H155 (high N-Myc NSCLC)) [nM] | DC50 (GSPT1 [2]; NCI-H441 (low N-Myc NSCLC)) [nM] | DC50 (GSPT1 [2]; NCI-H2023 (low N-Myc NSCLC)) [nM] | DC50 (GSPT1 [2]; WSU-DLCL2 triple hit lymphoma cells, 24 hours) [nM]
Cc1ccc(NC(=O)NCc2ccc3c(c2)C(=O)N(C2CCC(=O)NC2=O)C3)cc1Cl (stereo not shown) [Compound 8] | no or insignificant amounts of GSPT1 |  |  |  |  |  |  |  |  |  |  |  | 
O=C1CCC(N2Cc3ccc(COC(=O)Nc4cc(OC(F)(F)F)ccc4F)cc3C2=O)C(=O)N1 (stereo not shown) [Compound 345, (2-(2,6-dioxopiperidin-3-yl)-3-oxoisoindolin-5-yl)methyl(2-fluoro-5-(trifluoromethoxy)phenyl)carbamate] |  | Apoptosis induction | 100 | efficient degradation of GSPT1 in a time and dose dependent manner | efficient degradation of GSPT1 in SCLC cell lines in a time and dose dependent manner | 100 | 95 to 99 | 76 | 6 | 14 | 8.7 | 18 | 24
